In article PMC8963254, “Effects of Lysine N-ζ-Methylation in Ultrashort Tetrabasic Lipopeptides (UTBLPs) on the Potentiation of Rifampicin, Novobiocin, and Niclosamide in Gram-Negative Bacteria” (Antibiotics, 2022):
Read-outs that look alike come from different tables or passages of the source. Non-standard residues stand in square brackets, D forms with d. Residues, ends and D or L forms follow the SMILES beside them. *: point of attachment. Lys(Me2) = CN(C)CCCC[C@H](N)C(=O)O; Octanoyl = CCCCCCCC(=O)*

Assays:
P. aeruginosa PAO1 [1] = assay type: cell-based, Pseudomonas aeruginosa; details: PAO1, 18 h
In short: (§1)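 Minimum inhibitory concentration came from a CLSI broth dilution assay: 18 h at 37 °C, inoculum 5 × 10^5 CFU/mL final.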

MRSA ATCC 33592 = assay type: cell-based, Staphylococcus aureus; details: ATCC 33592, 18 h
In short: as §1

S. aureus ATCC 29213 = assay type: cell-based, Staphylococcus aureus; details: ATCC 29213, 18 h
In short: as §1

[2] = system: P. aeruginosa PA259-96196; assay: microbe, parasite or virus in culture; assay type: cell-based, Pseudomonas aeruginosa; details: PA259-96196, 18 h
In short: as §1

[3] = system: P. aeruginosa PA262-101856; assay: microbe, parasite or virus in culture; assay type: cell-based, Pseudomonas aeruginosa; details: PA262-101856, 18 h
In short: as §1

E. cloacae 118564 [4] = assay: microbe, parasite or virus in culture; assay type: cell-based, Enterobacter cloacae; details: 118564, 18 h
In short: as §1

[5] = system: P. aeruginosa PA259-96196; assay type: cell-based, Pseudomonas aeruginosa; details: for MICUTBLP: UTBLP alone
In short: (§2)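 Values derive from a two-agent checkerboard with an 18 h, 37 °C incubation. FICI cut-offs: ≤0.5 synergy, 0.5–4 additive, >4 antagonism.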

[6] = system: P. aeruginosa PA262-101856; assay type: cell-based, Pseudomonas aeruginosa; details: for MICUTBLP: UTBLP alone
In short: as §2

P. aeruginosa PAO1 [7] = assay type: cell-based, Pseudomonas aeruginosa; details: for MICUTBLP: UTBLP alone
In short: as §2

A. baumannii 92247 = assay type: cell-based, Acinetobacter baumannii; details: for MICUTBLP: UTBLP alone
In short: as §2

A. baumannii AB027 = assay type: cell-based, Acinetobacter baumannii; details: for MICUTBLP: UTBLP alone
In short: as §2

A. baumannii ATCC 17978 = assay type: cell-based, Acinetobacter baumannii; details: for MICUTBLP: UTBLP alone
In short: as §2

E. cloacae 118564 [8] = assay type: cell-based, Enterobacter cloacae; details: for MICUTBLP: UTBLP alone
In short: as §2

[9] = UTBLP in combination with novobiocin
[10] = UTBLP in combination with rifampicin
[11] = novobiocin in combination with the UTBLP
[12] = rifampicin in combination with the UTBLP
[13] = UTBLP in combination with chloramphenicol
[14] = UTBLP in combination with niclosamide
[15] = chloramphenicol in combination with the UTBLP
[16] = niclosamide in combination with the UTBLP

**Q.** `CCCCCCCC(=O)NCCCC[C@H](NC(=O)CCCCCCC)C(=O)N[C@@H](CCCCN(C)C)C(=O)N[C@@H](CCCCN(C)C)C(=O)N[C@@H](CCCCN(C)C)C(=O)N[C@@H](CCCCN(C)C)C(N)=O` [UTBLP 7] (Octanoyl-K(Octanoyl)[Lys(Me2)][Lys(Me2)][Lys(Me2)][Lys(Me2)]-NH2) was tested. Which MIC (P. aeruginosa PAO1 [1]) did it give?
**A.** >128 µg/mL

**Q.** And the MIC (MRSA ATCC 33592)?
**A.** >128 µg/mL

**Q.** What about the MIC (S. aureus ATCC 29213) of the same molecule?
**A.** >128 µg/mL

**Q.** What about the MIC [2] of the same molecule?
**A.** > 128 µg/mL

**Q.** What about the MIC [3] of the same molecule?
**A.** > 128 µg/mL

**Q.** What about the MIC (E. cloacae 118564 [4]) of the same molecule?
**A.** > 128 µg/mL

**Q.** What about the Interpretation ([5]; UTBLP + novobiocin) of the same molecule?
**A.** Additive (0.5 < x ≤ 4 is additive)

**Q.** What about the Interpretation ([5]; UTBLP + rifampicin) of the same molecule?
**A.** Additive (0.5 < x ≤ 4 is additive)

**Q.** What about the MICUTBLP ([5]; plate with novobiocin) of the same molecule?
**A.** > 128 µg/mL

**Q.** What about the MICUTBLP ([5]; plate with rifampicin) of the same molecule?
**A.** > 128 µg/mL

**Q.** And the “MICUTBLP [MICcombo]” value [5, 9]?
**A.** 16 µg/mL

**Q.** And the “MICUTBLP [MICcombo]” value [5, 10]?
**A.** 16 µg/mL

**Q.** And the “MICantibiotic [MICcombo]” value [5, 11]?
**A.** 512 µg/mL

**Q.** What about the “MICantibiotic [MICcombo]” value [5, 12] of the same molecule?
**A.** 8 µg/mL

**Q.** And the Interpretation ([6]; UTBLP + novobiocin)?
**A.** Additive (0.5 < x ≤ 4 is additive)

**Q.** And the Interpretation ([6]; UTBLP + rifampicin)?
**A.** Additive (0.5 < x ≤ 4 is additive)

**Q.** And the MICUTBLP ([6]; plate with novobiocin)?
**A.** > 128 µg/mL

**Q.** And the MICUTBLP ([6]; plate with rifampicin)?
**A.** > 128 µg/mL

**Q.** What about the “MICUTBLP [MICcombo]” value [6, 9] of the same molecule?
**A.** 16 µg/mL

**Q.** And the “MICUTBLP [MICcombo]” value [6, 10]?
**A.** 16 µg/mL

**Q.** What about the “MICantibiotic [MICcombo]” value [6, 11] of the same molecule?
**A.** 512 µg/mL

**Q.** What about the “MICantibiotic [MICcombo]” value [6, 12] of the same molecule?
**A.** 512 µg/mL

**Q.** What about the Interpretation (P. aeruginosa PAO1 [7]; UTBLP + chloramphenicol) of the same molecule?
**A.** Additive (0.5 < x ≤ 4 is additive)

**Q.** And the Interpretation (P. aeruginosa PAO1 [7]; UTBLP + niclosamide)?
**A.** Additive (0.5 < x ≤ 4 is additive)

**Q.** And the Interpretation (P. aeruginosa PAO1 [7]; UTBLP + novobiocin)?
**A.** Synergy (FICI ≤ 0.5 is synergistic)

**Q.** And the Interpretation (P. aeruginosa PAO1 [7]; UTBLP + rifampicin)?
**A.** Additive (0.5 < x ≤ 4 is additive)

**Q.** What about the MICUTBLP (P. aeruginosa PAO1 [7]; plate with chloramphenicol) of the same molecule?
**A.** > 128 µg/mL

**Q.** And the MICUTBLP (P. aeruginosa PAO1 [7]; plate with niclosamide)?
**A.** > 128 µg/mL

**Q.** What about the MICUTBLP (P. aeruginosa PAO1 [7]; plate with novobiocin) of the same molecule?
**A.** > 128 µg/mL

**Q.** And the MICUTBLP (P. aeruginosa PAO1 [7]; plate with rifampicin)?
**A.** > 128 µg/mL

**Q.** What about the “MICUTBLP [MICcombo]” value (P. aeruginosa PAO1 [7]; [13]) of the same molecule?
**A.** 8 µg/mL

**Q.** And the “MICUTBLP [MICcombo]” value (P. aeruginosa PAO1 [7]; [14])?
**A.** 0.25 µg/mL

**Q.** What about the “MICUTBLP [MICcombo]” value (P. aeruginosa PAO1 [7]; [9]) of the same molecule?
**A.** 16 µg/mL

**Q.** What about the “MICUTBLP [MICcombo]” value (P. aeruginosa PAO1 [7]; [10]) of the same molecule?
**A.** 16 µg/mL

**Q.** What about the “MICantibiotic [MICcombo]” value (P. aeruginosa PAO1 [7]; [15]) of the same molecule?
**A.** 8 µg/mL

**Q.** And the “MICantibiotic [MICcombo]” value (P. aeruginosa PAO1 [7]; [16])?
**A.** 1024 µg/mL

**Q.** What about the “MICantibiotic [MICcombo]” value (P. aeruginosa PAO1 [7]; [11]) of the same molecule?
**A.** 128 µg/mL

**Q.** What about the “MICantibiotic [MICcombo]” value (P. aeruginosa PAO1 [7]; [12]) of the same molecule?
**A.** 4 µg/mL

**Q.** And the Interpretation (A. baumannii 92247; UTBLP + novobiocin)?
**A.** Synergy (FICI ≤ 0.5 is synergistic)

**Q.** And the Interpretation (A. baumannii 92247; UTBLP + rifampicin)?
**A.** Synergy (FICI ≤ 0.5 is synergistic)

**Q.** And the MICUTBLP (A. baumannii 92247; plate with novobiocin)?
**A.** 32 µg/mL

**Q.** And the MICUTBLP (A. baumannii 92247; plate with rifampicin)?
**A.** 32 µg/mL

**Q.** What about the “MICUTBLP [MICcombo]” value (A. baumannii 92247; [9]) of the same molecule?
**A.** 1 µg/mL

**Q.** And the “MICUTBLP [MICcombo]” value (A. baumannii 92247; [10])?
**A.** 8 µg/mL

**Q.** And the “MICantibiotic [MICcombo]” value (A. baumannii 92247; [11])?
**A.** 0.25 µg/mL

**Q.** And the “MICantibiotic [MICcombo]” value (A. baumannii 92247; [12])?
**A.** 0.125 µg/mL

**Q.** And the Interpretation (A. baumannii AB027; UTBLP + novobiocin)?
**A.** Synergy (FICI ≤ 0.5 is synergistic)

**Q.** And the Interpretation (A. baumannii AB027; UTBLP + rifampicin)?
**A.** Synergy (FICI ≤ 0.5 is synergistic)

**Q.** What about the MICUTBLP (A. baumannii AB027; plate with novobiocin) of the same molecule?
**A.** 128 µg/mL

**Q.** What about the MICUTBLP (A. baumannii AB027; plate with rifampicin) of the same molecule?
**A.** 128 µg/mL

**Q.** What about the “MICUTBLP [MICcombo]” value (A. baumannii AB027; [9]) of the same molecule?
**A.** 4 µg/mL

**Q.** And the “MICUTBLP [MICcombo]” value (A. baumannii AB027; [10])?
**A.** 8 µg/mL

**Q.** And the “MICantibiotic [MICcombo]” value (A. baumannii AB027; [11])?
**A.** 0.5 µg/mL

**Q.** And the “MICantibiotic [MICcombo]” value (A. baumannii AB027; [12])?
**A.** 0.063 µg/mL

**Q.** And the Interpretation (A. baumannii ATCC 17978; UTBLP + chloramphenicol)?
**A.** Additive (0.5 < x ≤ 4 is additive)

**Q.** What about the Interpretation (A. baumannii ATCC 17978; UTBLP + niclosamide) of the same molecule?
**A.** Synergy (FICI ≤ 0.5 is synergistic)

**Q.** What about the Interpretation (A. baumannii ATCC 17978; UTBLP + novobiocin) of the same molecule?
**A.** Synergy (FICI ≤ 0.5 is synergistic)

**Q.** What about the Interpretation (A. baumannii ATCC 17978; UTBLP + rifampicin) of the same molecule?
**A.** Synergy (FICI ≤ 0.5 is synergistic)

**Q.** And the MICUTBLP (A. baumannii ATCC 17978; plate with chloramphenicol)?
**A.** 128 µg/mL

**Q.** What about the MICUTBLP (A. baumannii ATCC 17978; plate with niclosamide) of the same molecule?
**A.** 128 µg/mL

**Q.** And the MICUTBLP (A. baumannii ATCC 17978; plate with novobiocin)?
**A.** 128 µg/mL

**Q.** And the MICUTBLP (A. baumannii ATCC 17978; plate with rifampicin)?
**A.** 128 µg/mL

**Q.** What about the “MICUTBLP [MICcombo]” value (A. baumannii ATCC 17978; [13]) of the same molecule?
**A.** 0.25 µg/mL

**Q.** And the “MICUTBLP [MICcombo]” value (A. baumannii ATCC 17978; [14])?
**A.** 4 µg/mL

**Q.** And the “MICUTBLP [MICcombo]” value (A. baumannii ATCC 17978; [9])?
**A.** 4 µg/mL

**Q.** What about the “MICUTBLP [MICcombo]” value (A. baumannii ATCC 17978; [10]) of the same molecule?
**A.** 4 µg/mL

**Q.** And the “MICantibiotic [MICcombo]” value (A. baumannii ATCC 17978; [15])?
**A.** 64 µg/mL

**Q.** And the “MICantibiotic [MICcombo]” value (A. baumannii ATCC 17978; [16])?
**A.** 4 µg/mL

**Q.** And the “MICantibiotic [MICcombo]” value (A. baumannii ATCC 17978; [11])?
**A.** 0.5 µg/mL

**Q.** And the “MICantibiotic [MICcombo]” value (A. baumannii ATCC 17978; [12])?
**A.** 0.125 µg/mL

**Q.** What about the Interpretation (E. cloacae 118564 [8]; UTBLP + novobiocin) of the same molecule?
**A.** Synergy (FICI ≤ 0.5 is synergistic)

**Q.** And the Interpretation (E. cloacae 118564 [8]; UTBLP + rifampicin)?
**A.** Synergy (FICI ≤ 0.5 is synergistic)

**Q.** What about the MICUTBLP (E. cloacae 118564 [8]; plate with novobiocin) of the same molecule?
**A.** > 128 µg/mL

**Q.** What about the MICUTBLP (E. cloacae 118564 [8]; plate with rifampicin) of the same molecule?
**A.** > 128 µg/mL

**Q.** What about the “MICUTBLP [MICcombo]” value (E. cloacae 118564 [8]; [9]) of the same molecule?
**A.** 16 µg/mL

**Q.** And the “MICUTBLP [MICcombo]” value (E. cloacae 118564 [8]; [10])?
**A.** 16 µg/mL

**Q.** And the “MICantibiotic [MICcombo]” value (E. cloacae 118564 [8]; [11])?
**A.** 4 µg/mL

**Q.** What about the “MICantibiotic [MICcombo]” value (E. cloacae 118564 [8]; [12]) of the same molecule?
**A.** 1 µg/mL
